Test results as given in patent publication US20250074946A1, “USE OF SE-DR AFFINITY PEPTIDE IN PREPARING DRUG FOR TREATING RHEUMATIC DISEASE” (HEBEI FITNESS BIOTECHNOLOGY CO., LTD., priority 2021, published 2025).
Where a SMILES comes first, the peptide text is derived from it. Where no end group is shown, it is not given here.

Columns and labels:
[1] = system: PBMC; test: PBMC stimulation test, IL-6 in supernatant by ELISA; type: cell-based, human; conditions: PBMC 1×10^6 cell/ml, peptide 10 μg/ml, 5 days of culture
Text: The SE-DR molecule is directly related to the pathogenesis of RA. It can present RA-related autoantigens in vivo, such as type II collagen (CII), heat shock protein 60 (Hsp60), cartilage glycoprotein (HCgp-39) and so on, and further activate autoreactive T cells, leading to the occurrence of rheumatoid arthritis. An important strategy for the treatment of RA is to use competitive inhibition to block the activation of autoreactive T cells by autoantigen peptides. […] Based on the above principles, we have designed and synthesized a series of altered peptide ligands, and screened for their affinity to SE-DR and for the activation ability on the peripheral blood T cells in RA patients. The specific steps and results are shown in Example 1 and Example 2.
3 mL ficoll was added to a 15 mL centrifuge tube, and 4 mL blood sample was then applied on the surface of ficoll. The tube was centrifuged at 400 g at 18-20° C. for 30-40 min. The upper layer of plasma was aspirated with a Pasteur pipette, and the PBMC layer (approximately 2 mL) was aspirated, and added to a 14 mL centrifuge tube previously filled with at least 3 volumes (6 mL) of PBS. The mixture was gently resuspended. The tube was centrifuged at 60-100 g for 10 min at 18-20° C. After centrifugation, the supernatant was removed with a Pasteur pipette, and the resulting cell mass was resuspended in 6-8 mL PBS and centrifuged at 18-20° C. for 10 min at 60-100 g to remove the supernatant. The cells were resuspended in an appropriate amount of 1640 complete medium and diluted to 1×10^6 cell/ml after cell counting. The diluted cell suspension was added to a 96-well plate. The positive control, allosteric peptide, was added to 100 μl cell culture to a final concentration of 10 μg/ml. The mixture was replenished to 200 μL with 1640 complete medium. After 5 days of culture, the supernatant was aspirated, centrifuged at 3000 rpm for 5 minutes, and the level of IL-6 in the supernatant was detected by ELISA.

[2] = system: immune system of healthy rats; test: Immune indicators of SD rats after one month of administration (Example 4); type: in vivo, rat; conditions: once a day for 4 weeks, end of administration
Method: SD rats were used to investigate the effects of the SE-DR affinity peptides on the immune indicators of the rats after continuous administration for one month. […] At the end of administration, analysis was conducted on the serum anti-FNS007 antibodies, different types of serum immunoglobulins, the serum complement, the peripheral blood T lymphocyte and the serum cytokines.

[3] = system: CIA mice infected with chronic hepatitis B; test: CIA mice infected with chronic hepatitis B (Example 8); type: in vivo, mouse
Method: Establishment of chronic hepatitis B model in mice: DBA/1 mice were injected with Raav8-1. 3 HBV (1×10^12 vg/mL) via tail vein to establish HBV chronic hepatitis B model.
DBA/1 mice infected with chronic hepatitis B were used to establish CIA model with chronic hepatitis B infection. Methods: Two days after the mice were injected with Raav8-1.3 HBV (1×10^12 vg/mL) via tail vein, the emulsion of bovine C II and CFA (containing 100 μg collagen) was intradermally injected into the tail head of the mice for immunization. After 21 days, the mice were boosted once by intraperitoneal injection of the emulsion (containing 100 μg collagen) prepared by bovine C II and IFA. Thereafter, the morphological changes of the four paws of the mice were examined every day, and the mice were randomly assigned to the treatment group at inflammation score of 1. […] Another 10 mice with latent hepatitis B infection were not subjected to model establishment and set as the control group. PBS was administrated to both the model group and the control group. The mice in each group were given the corresponding drugs by tail intravenous injection at the volume of 10 ml/kg, once every other day, for 27 consecutive days. The mice were sacrificed on day 28 after administration. The inflammation scores of the four paws of the mice in each group were evaluated during the administration. The serological indicators for virus injection and liver function of the mice were detected on the day of booster immunization (22 days after tail vein injection) and at the time of sacrifice.

[4] = system: immune system of healthy monkeys; test: Immune indicators of cynomolgus monkeys after one month of administration (Example 5); type: in vivo, cynomolgus monkey; conditions: once a day for 4 weeks, end of administration
Text: Cynomolgus monkeys were used to investigate the effects of the SE-DR affinity peptide on the immune indicators of cynomolgus monkeys after continuous administration for one month. […] At the end of administration, the immune indicators, including the serum anti-FNS007 antibodies, the immunoglobulins of different serotypes, the serum complement, the peripheral blood T lymphocyte and the serum cytokines, were observed.

[5] = system: CIA rats with latent tuberculosis infection

C[C@H](NC(=O)CNC(=O)CNC(=O)[C@H](CCC(N)=O)NC(=O)[C@H](CCC(=O)O)NC(=O)CNC(=O)[C@H](CCCCN)NC(=O)[C@@H](N)Cc1ccccc1)C(=O)NCC(=O)N[C@@H](CCC(=O)O)C(=O)O [APL1]
IL-6 levels in the supernatant [1]: 18.9 ng/mL

CC[C@H](C)[C@H](N)C(=O)N[C@@H](Cc1c[nH]c2ccccc12)C(=O)N[C@@H](Cc1ccc(O)cc1)C(=O)N[C@H](C(=O)N[C@H](C(=O)N[C@@H](CS)C(=O)N[C@@H](Cc1ccccc1)C(=O)NCC(=O)N[C@@H](CS)C(=O)N[C@@H](CCC(=O)O)C(=O)N[C@H](C(=O)N[C@@H](Cc1c[nH]cn1)C(=O)N[C@@H](C)C(=O)N[C@@H](CCSC)C(=O)N[C@@H](CC(C)C)C(=O)O)[C@@H](C)O)[C@@H](C)O)[C@@H](C)CC [APL10] (H-IWYITCFGCETHAML-OH; N-terminus and C-terminus assumed)
IL-6 levels in the supernatant [1]: 4.9 ng/mL

CC(C)C[C@H](NC(=O)[C@@H](NC(=O)[C@H](Cc1ccccc1)NC(=O)[C@H](CO)NC(=O)[C@@H](N)CCCNC(=N)N)[C@@H](C)O)C(=O)N[C@@H](CC(=O)O)C(=O)N[C@@H](CO)C(=O)N[C@@H](CO)C(=O)N[C@@H](CCC(=O)O)C(=O)N[C@H](C(=O)NCC(=O)N[C@H](C(=O)NCC(=O)O)C(C)C)[C@@H](C)O [APL15]
IL-6 levels in the supernatant [1]: 8.7 ng/mL

CC(C)C[C@H](NC(=O)[C@@H](NC(=O)[C@H](Cc1ccccc1)NC(=O)[C@H](CO)NC(=O)[C@@H](N)CCCNC(=N)N)[C@@H](C)O)C(=O)N[C@@H](CC(=O)O)C(=O)NCC(=O)N[C@@H](CO)C(=O)N[C@@H](CCC(=O)O)C(=O)N[C@H](C(=O)NCC(=O)N[C@H](C(=O)NCC(=O)O)C(C)C)[C@@H](C)O [APL19]
IL-6 levels in the supernatant [1]: 15.8 ng/mL

CC(C)C[C@H](NC(=O)[C@H](C)NC(=O)[C@@H](NC(=O)[C@H](C)NC(=O)[C@@H](N)CO)C(C)C)C(=O)N[C@@H](CCCNC(N)=O)C(=O)N[C@@H](CO)C(=O)N[C@@H](CO)C(=O)N[C@H](C(=O)N1CCC[C@H]1C(=O)NCC(=O)N[C@H](C(=O)N[C@@H](CCCNC(=N)N)C(=O)O)C(C)C)C(C)C [APL24, SAVALCitSSVPGVR]
IL-6 levels in the supernatant [1]: 6.6 ng/mL

CC(C)C[C@H](NC(=O)[C@H](CCCNC(=N)N)NC(=O)[C@@H](NC(=O)[C@H](C)NC(=O)[C@@H](N)CO)C(C)C)C(=O)N[C@@H](CCCNC(N)=O)C(=O)N[C@@H](CCCNC(=N)N)C(=O)N[C@@H](CO)C(=O)N[C@H](C(=O)N1CCC[C@H]1C(=O)NCC(=O)N[C@H](C(=O)N[C@@H](CCCNC(=N)N)C(=O)O)C(C)C)C(C)C [APL26, SAVRLCitRSVPGVR]
IL-6 levels in the supernatant [1]: 7 ng/mL

CC(C)C[C@H](NC(=O)[C@H](CCCNC(N)=O)NC(=O)[C@@H](NC(=O)[C@H](C)NC(=O)[C@H](CO)NC(=O)[C@H](CO)NC(=O)[C@H](CCCNC(N)=O)NC(=O)[C@@H](NC(=O)[C@H](C)NC(=O)[C@H](Cc1ccc(O)cc1)NC(=O)[C@@H](NC(=O)CN)C(C)C)[C@@H](C)O)C(C)C)C(=O)N[C@@H](CCCNC(N)=O)C(=O)O [APL34, GVYATCitSSAACitLCit]
IL-6 levels in the supernatant [1]: 5.2 ng/mL

CC(C)C[C@H](NC(=O)[C@H](CCCCN)NC(=O)[C@H](CC(N)=O)NC(=O)[C@H](C)NC(=O)[C@H](CCCNC(N)=O)NC(=O)[C@H](CC(N)=O)NC(=O)[C@@H](NC(=O)[C@H](Cc1ccccc1)NC(=O)[C@H](CC(=O)O)NC(=O)[C@@H](N)CCC(N)=O)[C@@H](C)O)C(=O)N[C@@H](CCCCN)C(=O)N[C@@H](CC(N)=O)C(=O)N[C@@H](CO)C(=O)O [APL35, QDFTNCitANKLKNS]
IL-6 levels in the supernatant [1]: 20.8 ng/mL

CC(C)C[C@H](NC(=O)[C@H](CC(C)C)NC(=O)[C@@H](NC(=O)[C@@H](N)C(C)C)C(C)C)C(=O)N[C@H](C(=O)N[C@@H](C)C(=O)N[C@H](C(=O)N[C@@H](CCC(=O)O)C(=O)NCC(=O)N[C@@H](CCCNC(N)=O)C(=O)N[C@H](C(=O)N[C@@H](CCCNC(=N)N)C(=O)N[C@H](C(=O)N[C@@H](C)C(=O)N[C@@H](CO)C(=O)N[C@@H](C)C(=O)N[C@@H](Cc1ccc(O)cc1)C(=O)N[C@@H](CCC(N)=O)C(=O)N[C@@H](CC(=O)O)C(=O)N[C@@H](CCCCN)C(=O)O)C(C)C)C(C)C)[C@@H](C)O)C(C)C [APL36]
IL-6 levels in the supernatant [1]: 6.8 ng/mL

CC(C)C[C@H](NC(=O)CNC(=O)[C@H](CCCNC(N)=O)NC(=O)[C@H](C)NC(=O)[C@@H]1CCCN1C(=O)[C@@H]1CCCN1C(=O)[C@@H]1CCCN1C(=O)[C@H](C)NC(=O)[C@@H]1CCCN1C(=O)[C@H](CCCNC(N)=O)NC(=O)[C@H](CO)NC(=O)[C@H](CCCNC(=N)N)NC(=O)CNC(=O)[C@H](CCCNC(N)=O)NC(=O)[C@@H](NC(=O)[C@H](CO)NC(=O)[C@H](CCC(=O)O)NC(=O)[C@@H](NC(=O)[C@H](CO)NC(=O)[C@H](CO)NC(=O)[C@H](CCCNC(N)=O)NC(=O)[C@H](CC(C)C)NC(=O)[C@H](CCCNC(N)=O)NC(=O)[C@@H](N)C(C)C)C(C)C)[C@@H](C)O)C(=O)N[C@H](C(=O)O)[C@@H](C)O [APL37, VCitLCitSSVESTCitGRSCitPAPPPACitGLT]
CD3% [2]: 38.29 ± 11.34%
CD4% [2]: 19.25 ± 7.84%
CD8% [2]: 18.33 ± 6.15%
IFN-γ [2]: 2.44 ± 0.31 pg/mL
IL-2 [2]: 3.28 ± 2.59 pg/mL
IL-4 [2]: 1.77 ± 0.85 pg/mL
TNF-α [2]: 4.96 ± 2.01 pg/mL
ALT level ([3]; at sacrifice, day 28): 47.37 ± 21.13 U/L
Observation on the daily condition of mice ([3]; during administration): No abnormality
CD3% [4]: 64.55 ± 17.31%
CD4% [4]: 28.84 ± 9.35%
CD8% [4]: 27.61 ± 9.99%
IFN-γ [4]: 5.11 ± 0.54 pg/mL
IL-2 [4]: 4.46 ± 0.44 pg/mL
IL-4 [4]: 2.18 ± 0.29 pg/mL
TNF-α [4]: 2.51 ± 0.41 pg/mL
Observation on the daily condition of rats ([5]; during administration): No abnormality
Tuberculosis recurrence rate ([5]; peptides 0.2 mmol, adalimumab 1 mg/kg, 21 days): 0%
Culture of MTB from lungs and spleens of rats at sacrifice ([5]; sacrifice on day 22, peptides 0.2 mmol, adalimumab 1 mg/kg): Negative

RSFTLAASETGVG [APL16]
IL-6 levels in the supernatant [1]: 6.8 ng/mL

RSFTLASSATGVG [APL17]
IL-6 levels in the supernatant [1]: 5.4 ng/mL

YAKQATLKLA [APL6]
IL-6 levels in the supernatant [1]: 6.5 ng/mL

YVAQNTLKLA [APL5]
IL-6 levels in the supernatant [1]: 8.7 ng/mL
